According to patent publication US11000033B2, “Ketone or oxime compound, and herbicide” (NISSAN CHEMICAL CORPORATION, priority 2014, dated 2021):

Legend:
Format in all cases: in vivo
transplanted rice plant = assay: Test Example 1: effect on crop, application before weed generation in submerged conditions (symbol a); details: application herbicide amount 320 g/ha
Procedure, shortened: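 Alluvial soil pots flooded to 4 cm water, sown with Echinochloa oryzacola, Scirpus juncoides and Monochoria vaginalis, then transplanted with 2.5 leaf stage rice seedlings; pre-emergence application. Greenhouse 25° C. to 30° C.; scored 0–5 by herbicidal ratio 3 weeks after application.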

Scirpus juncoides = assay: Test Example 2: herbicidal activity, application during weed generation in submerged conditions (symbol B); details: Table 23; application herbicide amount 320 g/ha; grade 0-5 by criteria of Test Example 1
Procedure, shortened: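 Submerged alluvial soil (4 cm) sown with mixed seed; greenhouse 25–30° C. 1–2 leaf: diluted emulsion onto water surface, preset dose. Visual score, 3 wk.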

Digitaria ciliaris = assay: Test Example 4: herbicidal effect by soil treatment (symbol F)
Procedure, shortened: (§1)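 Seeds were sown in sterilized diluvial soil, covered with about 1.5 cm of soil, and the soil surface was sprayed with a water-diluted emulsion of the compound at a predetermined rate. Plants grew in a greenhouse at 25° C. to 30° C.; effects were scored visually 3 weeks after application.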

Alopecurus myosuroides [1] = assay: Test Example 4: herbicidal effect by soil treatment (symbol J)
Procedure, shortened: as §1

Galium spurium = assay: Test Example 4: herbicidal effect by soil treatment (symbol Q)
Procedure, shortened: as §1

Veronica persica [2] = assay: Test Example 4: herbicidal effect by soil treatment (symbol R)
Procedure, shortened: as §1

corn [3] = assay: Test Example 4: effect on crop by soil treatment (symbol c); details: for c: corn, effect on crop grade: application herbicide amount 320 g/ha
Procedure, shortened: (§2)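 Grown at 25° C. to 30° C. in a greenhouse, the crops came from seed sown spot-wise in sterilized diluvial soil under roughly 1.5 cm of covering soil.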

rice = assay: Test Example 4: effect on crop by soil treatment (symbol b); details: for b: directly sowed rice plant, effect on crop grade: application herbicide amount 320 g/ha
Procedure, shortened: as §2

rapeseed = assay: Test Example 4: effect on crop by soil treatment (symbol g); details: for g: rapeseed, effect on crop grade: application herbicide amount 320 g/ha
Procedure, shortened: as §2

Alopecurus myosuroides [4] = assay: Test Example 5: herbicidal effect by foliage application, plastic box (symbol J); details: 320 g/ha, 3 weeks after application
Procedure, shortened: (§3)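 Effect is rated 3 weeks after a foliar spray of water-diluted emulsion concentrate at a predetermined herbicide amount. Plants had grown 14 days in a 25° C. to 30° C. greenhouse from seed in sterilized diluvial soil.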

Lolium multiflorum Lam. = assay: Test Example 5: herbicidal effect by foliage application, plastic box (symbol K); details: 320 g/ha, 3 weeks after application
Procedure, shortened: as §3

Veronica persica [5] = assay: Test Example 5: herbicidal effect by foliage application, plastic box (symbol R); details: 320 g/ha, 3 weeks after application
Procedure, shortened: as §3

corn [6] = assay: Test Example 5: effect on crop by foliage application, plastic box (symbol c); details: 320 g/ha, 3 weeks after application
Procedure, shortened: (§4)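 In a plastic box 7 cm deep filled with sterilized diluvial soil, seeds of crops and weeds such as Digitaria ciliaris, Avena fatua and Amaranthus retroflexus are sown in spots and covered with about 1.5 cm of soil before greenhouse growth at 25–30° C.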

wheat = assay: Test Example 5: effect on crop by foliage application, plastic box (symbol e); details: 320 g/ha, 3 weeks after application
Procedure, shortened: as §4

beet = assay: Test Example 5: effect on crop by foliage application, plastic box (symbol f); details: 320 g/ha, 3 weeks after application
Procedure, shortened: as §4

[7] = application herbicide amount 320 g/ha

SMILES	Effect grade on crop, a: transplanted rice plant (transplanted rice plant)	Herbicidal effect grade, B: Scirpus juncoides (Scirpus juncoides)	F: Digitaria ciliaris, herbicidal effect grade (Digitaria ciliaris; [7])	J: Alopecurus myosuroides, herbicidal effect grade (Alopecurus myosuroides [1]; [7])	Q: Galium spurium, herbicidal effect grade (Galium spurium; [7])	R: Veronica persica, herbicidal effect grade (Veronica persica [2]; [7])	c: corn, effect on crop grade (corn [3])	b: directly sowed rice plant, effect on crop grade (rice)	g: rapeseed, effect on crop grade (rapeseed)	J: Alopecurus myosuroides, herbicidal effect grade (Alopecurus myosuroides [4])	K: Lolium multiflorum Lam., herbicidal effect grade (Lolium multiflorum Lam.)	R: Veronica persica, herbicidal effect grade (Veronica persica [5])	c: corn, effect on crop grade (corn [6])	e: wheat, effect on crop grade (wheat)	f: beet, effect on crop grade (beet)	also measured
Cc1cc(C)c(C2=C(O)CC(CC(=O)C3CCCCC3)C2=O)c(C)c1 (stereo not drawn) [2-030]	3 (Herbicidal ratio of 40% or higher and lower than 70%)	0 (Herbicidal ratio of 5% or lower (almost no effect))	4 (Herbicidal ratio of 70% or higher and lower than 90%)	3 (Herbicidal ratio of 40% or higher and lower than 70%)	0 (Herbicidal ratio of 5% or lower (almost no effect))	0 (Herbicidal ratio of 5% or lower (almost no effect))	1 (Herbicidal ratio of 5% or higher and lower than 20%)	5 (Herbicidal ratio of 90% or more (almost completely withered))	0 (Herbicidal ratio of 5% or lower (almost no effect))	3 (Herbicidal ratio of 40% or higher and lower than 70%)	5 (Herbicidal ratio of 90% or more (almost completely withered))	1 (Herbicidal ratio of 5% or higher and lower than 20%)	2 (Herbicidal ratio of 20% or higher and lower than 40%)	0 (Herbicidal ratio of 5% or lower (almost no effect))	0 (Herbicidal ratio of 5% or lower (almost no effect))	–
CON=C(C)CC1CC(OC(=O)C(C)Oc2ccc(Oc3ccc(Cl)cc3Cl)cc2)=C(c2c(C)cc(C)cc2C)C1=O (stereo not drawn) [1-163]	5 (Herbicidal ratio of 90% or more (almost completely withered))	4 (Herbicidal ratio of 70% or higher and lower than 90%)	–	–	–	–	–	–	–	5 (Herbicidal ratio of 90% or more (almost completely withered))	5 (Herbicidal ratio of 90% or more (almost completely withered))	3 (Herbicidal ratio of 40% or higher and lower than 70%)	4 (Herbicidal ratio of 70% or higher and lower than 90%)	5 (Herbicidal ratio of 90% or more (almost completely withered))	4 (Herbicidal ratio of 70% or higher and lower than 90%)	F: Digitaria ciliaris, herbicidal effect grade (Digitaria ciliaris; 320 g/ha): 5 (Herbicidal ratio of 90% or more (almost completely withered)); J: Alopecurus myosuroides, herbicidal effect grade (Alopecurus myosuroides [1]; 320 g/ha): 5 (Herbicidal ratio of 90% or more (almost completely withered)); Q: Galium spurium, herbicidal effect grade (Galium spurium; 320 g/ha): 0 (Herbicidal ratio of 5% or lower (almost no effect)); R: Veronica persica, herbicidal effect grade (Veronica persica [2]; 320 g/ha): 0 (Herbicidal ratio of 5% or lower (almost no effect)); c: corn, effect grade on crop (corn [3]; 320 g/ha): 1 (Herbicidal ratio of 5% or higher and lower than 20%); b: directly sowed rice plant, effect grade on crop (rice; 320 g/ha): 5 (Herbicidal ratio of 90% or more (almost completely withered)); g: rapeseed, effect grade on crop (rapeseed; 320 g/ha): 4 (Herbicidal ratio of 70% or higher and lower than 90%)
CCOC(=O)C(C(=O)C(F)(F)F)C1CC(O)=C(c2c(C)cc(C)cc2C)C1=O (stereo not drawn) [2-010]	0 (Herbicidal ratio of 5% or lower (almost no effect))	0 (Herbicidal ratio of 5% or lower (almost no effect))	0 (Herbicidal ratio of 5% or lower (almost no effect))	0 (Herbicidal ratio of 5% or lower (almost no effect))	0 (Herbicidal ratio of 5% or lower (almost no effect))	0 (Herbicidal ratio of 5% or lower (almost no effect))	0 (Herbicidal ratio of 5% or lower (almost no effect))	0 (Herbicidal ratio of 5% or lower (almost no effect))	0 (Herbicidal ratio of 5% or lower (almost no effect))	0 (Herbicidal ratio of 5% or lower (almost no effect))	0 (Herbicidal ratio of 5% or lower (almost no effect))	0 (Herbicidal ratio of 5% or lower (almost no effect))	0 (Herbicidal ratio of 5% or lower (almost no effect))	0 (Herbicidal ratio of 5% or lower (almost no effect))	0 (Herbicidal ratio of 5% or lower (almost no effect))	–
CON=CC1CC(O)=C(c2c(C)cc(C)cc2C)C1=O (mixture of isomers) [3-001]	0 (Herbicidal ratio of 5% or lower (almost no effect))	0 (Herbicidal ratio of 5% or lower (almost no effect))	2 (Herbicidal ratio of 20% or higher and lower than 40%)	1 (Herbicidal ratio of 5% or higher and lower than 20%)	0 (Herbicidal ratio of 5% or lower (almost no effect))	0 (Herbicidal ratio of 5% or lower (almost no effect))	0 (Herbicidal ratio of 5% or lower (almost no effect))	2 (Herbicidal ratio of 20% or higher and lower than 40%)	0 (Herbicidal ratio of 5% or lower (almost no effect))	3 (Herbicidal ratio of 40% or higher and lower than 70%)	4 (Herbicidal ratio of 70% or higher and lower than 90%)	0 (Herbicidal ratio of 5% or lower (almost no effect))	2 (Herbicidal ratio of 20% or higher and lower than 40%)	0 (Herbicidal ratio of 5% or lower (almost no effect))	0 (Herbicidal ratio of 5% or lower (almost no effect))	–
Cc1cc(C)c(C2=C(O)CC(CC(=O)C3CCCC3)C2=O)c(C)c1 (stereo not drawn) [2-028]	3 (Herbicidal ratio of 40% or higher and lower than 70%)	0 (Herbicidal ratio of 5% or lower (almost no effect))	4 (Herbicidal ratio of 70% or higher and lower than 90%)	3 (Herbicidal ratio of 40% or higher and lower than 70%)	0 (Herbicidal ratio of 5% or lower (almost no effect))	0 (Herbicidal ratio of 5% or lower (almost no effect))	2 (Herbicidal ratio of 20% or higher and lower than 40%)	5 (Herbicidal ratio of 90% or more (almost completely withered))	0 (Herbicidal ratio of 5% or lower (almost no effect))	4 (Herbicidal ratio of 70% or higher and lower than 90%)	5 (Herbicidal ratio of 90% or more (almost completely withered))	0 (Herbicidal ratio of 5% or lower (almost no effect))	4 (Herbicidal ratio of 70% or higher and lower than 90%)	0 (Herbicidal ratio of 5% or lower (almost no effect))	0 (Herbicidal ratio of 5% or lower (almost no effect))	–
